From paper PMC9572083, “Hybrids of 1,4-Quinone with Quinoline Derivatives: Synthesis, Biological Activity, and Molecular Docking with DT-Diaphorase (NQO1)” (Molecules, 2022)

Columns and labels:
[1] = target: T1, NQO1 (DT-diaphorase, EC 1.6.5.5, human recombinant) (Homo sapiens, UniProt P15559); assay: NQO1 substrate NADPH recycling enzymatic assay; type: biochemical; settings: compound 10 µmol/L, pH 7.4, 25 °C, absorbance at 340 nm
T1 construct: purchased Sigma-Aldrich
Procedure, shortened: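 Human recombinant NQO1 (1.4 µg/mL) in 50 mmol/L potassium phosphate, pH 7.4, was tested with compounds at 10 µmol/L. NADPH was dispensed to start the reaction, and A340 was read every 10 s for 5 min at 25 °C. Initial slopes were expressed as µmol NADPH/µmol NQO1/min against compound-free reactions.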

Colo-829 cells = assay: Cytotoxic activity, WST-1 assay, melanoma Colo-829; type: cell-based, human; settings: for SI (IC50 HFF-1/IC50 cancer line) Colo-829: HFF-1 vs Colo-829; for IC50: Homo sapiens, melanoma Colo-829, 72 h, WST-1
Procedure, shortened: (§1)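 Cells seeded at 5 × 10^4/well in DMEM with 10% FCS at 37 °C, 5% CO2, and exposed 72 h to compounds at 1–100 µg/mL. WST-1 formazan read at 450 nm. IC50 is the µM concentration giving 50% growth inhibition, with Neg. meaning above 30 µM; mean of ≥3 independent triplicate experiments.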

SK-OV-3 cells = assay: Cytotoxic activity, WST-1 assay, ovarian cancer SK-OV-3; type: cell-based, human; settings: for SI (IC50 HFF-1/IC50 cancer line) SK-OV-3: HFF-1 vs SK-OV-3; for IC50: Homo sapiens, ovarian cancer SK-OV-3, 72 h, WST-1
Procedure, shortened: as §1

MDA-MB-231 cells = assay: Cytotoxic activity, WST-1 assay, breast cancer MDA-MB-231; type: cell-based, human; settings: for SI (IC50 HFF-1/IC50 cancer line) MDA-MB-231: HFF-1 vs MDA-MB-231; for IC50: Homo sapiens, breast cancer MDA-MB-231, 72 h, WST-1
Procedure, shortened: as §1

T47D cells = assay: Cytotoxic activity, WST-1 assay, breast cancer T47D; type: cell-based, human; settings: for SI (IC50 HFF-1/IC50 cancer line) T47D: HFF-1 vs T47D; for IC50: Homo sapiens, breast cancer T47D, 72 h, WST-1
Procedure, shortened: as §1

MCF-7 cells = assay: Cytotoxic activity, WST-1 assay, breast cancer MCF-7; type: cell-based, human; settings: for SI (IC50 HFF-1/IC50 cancer line) MCF-7: HFF-1 vs MCF-7; for IC50: Homo sapiens, MCF7, breast cancer MCF-7, 72 h, WST-1
Procedure, shortened: as §1

A549 cells = assay: Cytotoxic activity, WST-1 assay, lung cancer A549; type: cell-based, human; settings: for SI (IC50 HFF-1/IC50 cancer line) A549: HFF-1 vs A549; for IC50: Homo sapiens, lung cancer A549, 72 h, WST-1
Procedure, shortened: as §1

HFF-1 cells = assay: Cytotoxic activity, WST-1 assay, normal fibroblasts HFF-1; type: cell-based; settings: Homo sapiens, normal fibroblasts HFF-1, 72 h
Procedure, shortened: as §1

H3 histone gene = assay: Transcriptional activity of H3 histone gene in A549 cells (RT-QPCR); type: cell-based, human; settings: 24 h, concentration equal to half of IC50
Experimental: (§2) The mechanism of anticancer activity was determined by detection of transcriptional activity of the genes encoding a proliferation marker (H3 histone), cell cycle regulators (p53 and p21), and the mitochondrial apoptosis pathway (BCL-2 and BAX) (Figure 3a–d). The derivatives 11b, 12b, 13b, and 14b were selected for this study.
(§3) Transcriptional activity of genes (TP53, CDKN1A, BAX, and BCL-2) was rated by real-time RT-QPCR using Opticon™ DNA Engine system (MJ Research, Watertown, NY, USA) and QuantTect® SYBR® Green RT-PCR Kit (Qiagen, Hilden, Germany). Cultured cells were incubated with tested compounds for 24 h. RNA was extracted using Quick-RNA™ MiniPrep kit columns (Zymo Research, Irvine, CA, USA). The extracted RNA was assessed qualitatively and quantitatively. The amount and purity of the total RNA in extracts were determined spectrophotometrically (HP8452A apparatus, Hewlett Packard, Waldbronn, Germany).

TP53 = assay: Transcriptional activity of TP53 gene in A549 cells (RT-QPCR); type: cell-based, human; settings: 24 h, concentration equal to half of IC50
Experimental: as §2, §3

CDKN1A = assay: Transcriptional activity of CDKN1A gene in A549 cells (RT-QPCR); type: cell-based, human; settings: 24 h, concentration equal to half of IC50
Experimental: as §2, §3

T1 sequence (P15559 whole entry): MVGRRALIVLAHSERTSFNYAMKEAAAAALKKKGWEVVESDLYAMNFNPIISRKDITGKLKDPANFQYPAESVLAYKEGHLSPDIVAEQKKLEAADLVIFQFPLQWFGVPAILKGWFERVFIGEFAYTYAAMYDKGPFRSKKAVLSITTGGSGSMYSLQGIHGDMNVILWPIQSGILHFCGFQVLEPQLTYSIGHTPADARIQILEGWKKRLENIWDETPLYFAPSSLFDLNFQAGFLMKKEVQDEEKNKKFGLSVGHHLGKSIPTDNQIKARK

Row | SMILES | NQO1 activity (enzymatic conversion rate) [1] [µmol NADPH/µmol NQO1/min] | SI (IC50 HFF-1/IC50 cancer line) Colo-829 (Colo-829 cells) | IC50 (Colo-829 cells) [nM] | SI (IC50 HFF-1/IC50 cancer line) SK-OV-3 (SK-OV-3 cells) | IC50 (SK-OV-3 cells) [nM] | SI (IC50 HFF-1/IC50 cancer line) MDA-MB-231 (MDA-MB-231 cells) | IC50 (MDA-MB-231 cells) [nM] | SI (IC50 HFF-1/IC50 cancer line) T47D (T47D cells) | IC50 (T47D cells) [nM] | SI (IC50 HFF-1/IC50 cancer line) MCF-7 (MCF-7 cells) | IC50 (MCF-7 cells) [nM] | SI (IC50 HFF-1/IC50 cancer line) A549 (A549 cells) | IC50 (A549 cells) [nM] | IC50 (HFF-1 cells) [nM] | Number of mRNA copies of the histone H3 gene (H3 histone gene) | TP53 gene expression (TP53) | CDKN1A expression (copies of mRNA) (CDKN1A) | melting point [°C]
1 | Cc1ccc2cccc(OC3=C(Cl)C(=O)c4ccncc4C3=O)c2n1 [Compound 13b, 6-chloro-7-[(2-methylquinolin-8-yl)oxy]isoquinoline-5,8-dione] | 1143 ± 36 | 66.77 | 390 ± 110 | 53.14 | 490 ± 50 | 236.73 | 110 ± 10 | 20.19 | 1290 ± 30 | 42.69 | 610 ± 90 | 45.68 | 570 ± 20 | 26000 ± 1600 | reduce the amount of mRNA copies by half | significant increase | highest increase | 110 to 112
2 | Cc1ccc2cccc(OC3=C(Cl)C(=O)c4ccccc4C3=O)c2n1 [Compound 14b, 2-chloro-3-[(2-methylquinolin-8-yl)oxy]naphthalene-1,4-dione] | 1260 ± 15 | 0.74 | 15000 ± 1030 | 0.66 | 16800 ± 590 | 0.58 | 19200 ± 620 | 0.50 | 22200 ± 1030 | 0.68 | 16300 ± 1080 | 5.30 | 2100 ± 290 | 11100 ± 1620 | reduce the amount of mRNA copies by half | slight increase | slight effect | 100 to 102
3 | Cc1ccc2c(n1)C(=O)C(Oc1cccc3ccc(C)nc13)=C(Cl)C2=O [Compound 12b, 6-chloro-2-methyl-7-[(2-methylquinolin-8-yl)oxy]quinoline-5,8-dione] | 1437 ± 42 | 6.01 | 1690 ± 80 | 6.81 | 1490 ± 210 | 6.46 | 1570 ± 190 | 5.34 | 1900 ± 230 | 5.70 | 1780 ± 30 | 7.10 | 1430 ± 60 | 10200 ± 1330 | – | significant increase | – | 130 to 132
